Measurements: ChEMBL document CHEMBL5537170, “Design, Synthesis, and Anti-Osteoporotic Characterization of Arginine N-Glycosylated Teriparatide Analogs via the Silver-catalyzed Solid-Phase Glycosylation Strategy” (J Med Chem, 2024)
*1 amine or outer side, *2 acyl side, *3 side chain or, on linkers, in order; H or OH if unused. Where a SMILES comes first, the peptide text is derived from it. [ ]: non-standard residue; d: D form. X3 = CC(=O)N[C@@H]1[C@@H](O)[C@H](O)[C@@H](CO)O[C@H]1NC(=N)NCCC[C@H](N[*:1])C(=O)[*:2]; X4 = N=C(NCCC[C@H](N[*:1])C(=O)[*:2])N[C@@H]1O[C@H](CO)[C@H](O)[C@H](O)[C@H]1O; X5 = N=C(NCCC[C@H](N[*:1])C(=O)[*:2])N[C@@H]1OC[C@@H](O)[C@H](O)[C@H]1O

Assay: Cytotoxicity against C57BL/6 mouse Pre-Osteoblast cells assessed as cell death upto 5 uM incubated for 4 days by CCK-8 assay
Type: toxicity, cell-based
Conditions: 96 h, time 4 day
In the case of CC[C@H](C)[C@H](NC(=O)[C@H](CCC(=O)O)NC(=O)[C@H](CO)NC(=O)[C@@H](NC(=O)[C@H](CO)NC(C)=O)C(C)C)C(=O)N[C@@H](CCC(N)=O)C(=O)N[C@@H](CC(C)C)C(=O)N[C@@H](CCSC)C(=O)N[C@@H](Cc1cnc[nH]1)C(=O)N[C@@H](CC(N)=O)C(=O)N[C@@H](CC(C)C)C(=O)NCC(=O)N[C@@H](CCCCN)C(=O)N[C@@H](Cc1cnc[nH]1)C(=O)N[C@@H](CC(C)C)C(=O)N[C@@H](CC(N)=O)C(=O)N[C@@H](CO)C(=O)N[C@@H](CCSC)C(=O)N[C@@H](CCC(=O)O)C(=O)N[C@@H](CCCNC(=N)N[C@@H]1O[C@H](CO)[C@@H](O[C@H]2O[C@H](CO)[C@@H](O)[C@H](O)[C@H]2O)[C@H](O)[C@H]1O)C(=O)N[C@H](C(=O)N[C@@H](CCC(=O)O)C(=O)N[C@@H](Cc1c[nH]c2ccccc12)C(=O)N[C@@H](CC(C)C)C(=O)N[C@@H](CCCNC(=N)N[C@@H]1O[C@H](CO)[C@@H](O[C@H]2O[C@H](CO)[C@@H](O)[C@H](O)[C@H]2O)[C@H](O)[C@H]1O)C(=O)N[C@@H](CCCCN)C(=O)N[C@@H](CCCCN)C(=O)N[C@@H](CC(C)C)C(=O)N[C@@H](CCC(N)=O)C(=O)N[C@@H](CC(=O)O)C(=O)N[C@H](C(=O)N[C@@H](Cc1cnc[nH]1)C(=O)N[C@@H](CC(N)=O)C(=O)N[C@@H](Cc1ccccc1)C(N)=O)C(C)C)C(C)C, the Activity is reported as “Non-Toxic”. For CC[C@H](C)[C@H](NC(=O)[C@H](CCC(=O)O)NC(=O)[C@H](CO)NC(=O)[C@@H](NC(=O)[C@H](CO)NC(C)=O)C(C)C)C(=O)N[C@@H](CCC(N)=O)C(=O)N[C@@H](CC(C)C)C(=O)N[C@@H](CCSC)C(=O)N[C@@H](Cc1cnc[nH]1)C(=O)N[C@@H](CC(N)=O)C(=O)N[C@@H](CC(C)C)C(=O)NCC(=O)N[C@@H](CCCCN)C(=O)N[C@@H](Cc1cnc[nH]1)C(=O)N[C@@H](CC(C)C)C(=O)N[C@@H](CC(N)=O)C(=O)N[C@@H](CO)C(=O)N[C@@H](CCSC)C(=O)N[C@@H](CCC(=O)O)C(=O)N[C@@H](CCCNC(=N)N[C@@H]1O[C@H](CO)[C@H](O)[C@H](O)[C@H]1O)C(=O)N[C@H](C(=O)N[C@@H](CCC(=O)O)C(=O)N[C@@H](Cc1c[nH]c2ccccc12)C(=O)N[C@@H](CC(C)C)C(=O)N[C@@H](CCCNC(=N)N)C(=O)N[C@@H](CCCCN)C(=O)N[C@@H](CCCCN)C(=O)N[C@@H](CC(C)C)C(=O)N[C@@H](CCC(N)=O)C(=O)N[C@@H](CC(=O)O)C(=O)N[C@H](C(=O)N[C@@H](Cc1cnc[nH]1)C(=O)N[C@@H](CC(N)=O)C(=O)N[C@@H](Cc1ccccc1)C(N)=O)C(C)C)C(C)C, the Activity was “Non-Toxic”. In the case of CC[C@H](C)[C@H](NC(=O)[C@H](CCC(=O)O)NC(=O)[C@H](CO)NC(=O)[C@@H](NC(=O)[C@H](CO)NC(C)=O)C(C)C)C(=O)N[C@@H](CCC(N)=O)C(=O)N[C@@H](CC(C)C)C(=O)N[C@@H](CCSC)C(=O)N[C@@H](Cc1cnc[nH]1)C(=O)N[C@@H](CC(N)=O)C(=O)N[C@@H](CC(C)C)C(=O)NCC(=O)N[C@@H](CCCCN)C(=O)N[C@@H](Cc1cnc[nH]1)C(=O)N[C@@H](CC(C)C)C(=O)N[C@@H](CC(N)=O)C(=O)N[C@@H](CO)C(=O)N[C@@H](CCSC)C(=O)N[C@@H](CCC(=O)O)C(=O)N[C@@H](CCCNC(=N)N[C@@H]1OC[C@@H](O)[C@H](O)[C@H]1O)C(=O)N[C@H](C(=O)N[C@@H](CCC(=O)O)C(=O)N[C@@H](Cc1c[nH]c2ccccc12)C(=O)N[C@@H](CC(C)C)C(=O)N[C@@H](CCCNC(=N)N[C@@H]1OC[C@@H](O)[C@H](O)[C@H]1O)C(=O)N[C@@H](CCCCN)C(=O)N[C@@H](CCCCN)C(=O)N[C@@H](CC(C)C)C(=O)N[C@@H](CCC(N)=O)C(=O)N[C@@H](CC(=O)O)C(=O)N[C@H](C(=O)N[C@@H](Cc1cnc[nH]1)C(=O)N[C@@H](CC(N)=O)C(=O)N[C@@H](Cc1ccccc1)C(N)=O)C(C)C)C(C)C (Ac-SVSEIQLMHNLGKHLNSME[X5]VEWL[X5]KKLQDVHNF-NH2), the Activity is reported as “Non-Toxic”. With CC[C@H](C)[C@H](NC(=O)[C@H](CCC(=O)O)NC(=O)[C@H](CO)NC(=O)[C@@H](NC(=O)[C@H](CO)NC(C)=O)C(C)C)C(=O)N[C@@H](CCC(N)=O)C(=O)N[C@@H](CC(C)C)C(=O)N[C@@H](CCSC)C(=O)N[C@@H](Cc1cnc[nH]1)C(=O)N[C@@H](CC(N)=O)C(=O)N[C@@H](CC(C)C)C(=O)NCC(=O)N[C@@H](CCCCN)C(=O)N[C@@H](Cc1cnc[nH]1)C(=O)N[C@@H](CC(C)C)C(=O)N[C@@H](CC(N)=O)C(=O)N[C@@H](CO)C(=O)N[C@@H](CCSC)C(=O)N[C@@H](CCC(=O)O)C(=O)N[C@@H](CCCNC(=N)N)C(=O)N[C@H](C(=O)N[C@@H](CCC(=O)O)C(=O)N[C@@H](Cc1c[nH]c2ccccc12)C(=O)N[C@@H](CC(C)C)C(=O)N[C@@H](CCCNC(=N)N[C@@H]1O[C@H](CO)[C@@H](O[C@@H]2O[C@H](CO)[C@H](O)[C@H](O)[C@H]2O)[C@H](O)[C@H]1O)C(=O)N[C@@H](CCCCN)C(=O)N[C@@H](CCCCN)C(=O)N[C@@H](CC(C)C)C(=O)N[C@@H](CCC(N)=O)C(=O)N[C@@H](CC(=O)O)C(=O)N[C@H](C(=O)N[C@@H](Cc1cnc[nH]1)C(=O)N[C@@H](CC(N)=O)C(=O)N[C@@H](Cc1ccccc1)C(N)=O)C(C)C)C(C)C the Activity was “Non-Toxic”. In the case of CC[C@H](C)[C@H](NC(=O)[C@H](CCC(=O)O)NC(=O)[C@H](CO)NC(=O)[C@@H](NC(=O)[C@H](CO)NC(C)=O)C(C)C)C(=O)N[C@@H](CCC(N)=O)C(=O)N[C@@H](CC(C)C)C(=O)N[C@@H](CCSC)C(=O)N[C@@H](Cc1cnc[nH]1)C(=O)N[C@@H](CC(N)=O)C(=O)N[C@@H](CC(C)C)C(=O)NCC(=O)N[C@@H](CCCCN)C(=O)N[C@@H](Cc1cnc[nH]1)C(=O)N[C@@H](CC(C)C)C(=O)N[C@@H](CC(N)=O)C(=O)N[C@@H](CO)C(=O)N[C@@H](CCSC)C(=O)N[C@@H](CCC(=O)O)C(=O)N[C@@H](CCCNC(=N)N[C@@H]1O[C@H](CO)[C@@H](O)[C@H](O)[C@H]1NC(C)=O)C(=O)N[C@H](C(=O)N[C@@H](CCC(=O)O)C(=O)N[C@@H](Cc1c[nH]c2ccccc12)C(=O)N[C@@H](CC(C)C)C(=O)N[C@@H](CCCNC(=N)N[C@@H]1O[C@H](CO)[C@@H](O)[C@H](O)[C@H]1NC(C)=O)C(=O)N[C@@H](CCCCN)C(=O)N[C@@H](CCCCN)C(=O)N[C@@H](CC(C)C)C(=O)N[C@@H](CCC(N)=O)C(=O)N[C@@H](CC(=O)O)C(=O)N[C@H](C(=O)N[C@@H](Cc1cnc[nH]1)C(=O)N[C@@H](CC(N)=O)C(=O)N[C@@H](Cc1ccccc1)C(N)=O)C(C)C)C(C)C (Ac-SVSEIQLMHNLGKHLNSME[X3]VEWL[X3]KKLQDVHNF-NH2), the Activity is reported as “Non-Toxic”. For CC[C@H](C)[C@H](NC(=O)[C@H](CCC(=O)O)NC(=O)[C@H](CO)NC(=O)[C@@H](NC(=O)[C@H](CO)NC(C)=O)C(C)C)C(=O)N[C@@H](CCC(N)=O)C(=O)N[C@@H](CC(C)C)C(=O)N[C@@H](CCSC)C(=O)N[C@@H](Cc1cnc[nH]1)C(=O)N[C@@H](CC(N)=O)C(=O)N[C@@H](CC(C)C)C(=O)NCC(=O)N[C@@H](CCCCN)C(=O)N[C@@H](Cc1cnc[nH]1)C(=O)N[C@@H](CC(C)C)C(=O)N[C@@H](CC(N)=O)C(=O)N[C@@H](CO)C(=O)N[C@@H](CCSC)C(=O)N[C@@H](CCC(=O)O)C(=O)N[C@@H](CCCNC(=N)N[C@@H]1O[C@H](CO)[C@H](O)[C@H](O)[C@H]1O)C(=O)N[C@H](C(=O)N[C@@H](CCC(=O)O)C(=O)N[C@@H](Cc1c[nH]c2ccccc12)C(=O)N[C@@H](CC(C)C)C(=O)N[C@@H](CCCNC(=N)N[C@@H]1O[C@H](CO)[C@H](O)[C@H](O)[C@H]1O)C(=O)N[C@@H](CCCCN)C(=O)N[C@@H](CCCCN)C(=O)N[C@@H](CC(C)C)C(=O)N[C@@H](CCC(N)=O)C(=O)N[C@@H](CC(=O)O)C(=O)N[C@H](C(=O)N[C@@H](Cc1cnc[nH]1)C(=O)N[C@@H](CC(N)=O)C(=O)N[C@@H](Cc1ccccc1)C(N)=O)C(C)C)C(C)C (Ac-SVSEIQLMHNLGKHLNSME[X4]VEWL[X4]KKLQDVHNF-NH2), the Activity was “Non-Toxic”. In the case of CC[C@H](C)[C@H](NC(=O)[C@H](CCC(=O)O)NC(=O)[C@H](CO)NC(=O)[C@@H](NC(=O)[C@H](CO)NC(C)=O)C(C)C)C(=O)N[C@@H](CCC(N)=O)C(=O)N[C@@H](CC(C)C)C(=O)N[C@@H](CCSC)C(=O)N[C@@H](Cc1cnc[nH]1)C(=O)N[C@@H](CC(N)=O)C(=O)N[C@@H](CC(C)C)C(=O)NCC(=O)N[C@@H](CCCCN)C(=O)N[C@@H](Cc1cnc[nH]1)C(=O)N[C@@H](CC(C)C)C(=O)N[C@@H](CC(N)=O)C(=O)N[C@@H](CO)C(=O)N[C@@H](CCSC)C(=O)N[C@@H](CCC(=O)O)C(=O)N[C@@H](CCCNC(=N)N)C(=O)N[C@H](C(=O)N[C@@H](CCC(=O)O)C(=O)N[C@@H](Cc1c[nH]c2ccccc12)C(=O)N[C@@H](CC(C)C)C(=O)N[C@@H](CCCNC(=N)N[C@@H]1O[C@H](CO)[C@@H](O)[C@H]1O)C(=O)N[C@@H](CCCCN)C(=O)N[C@@H](CCCCN)C(=O)N[C@@H](CC(C)C)C(=O)N[C@@H](CCC(N)=O)C(=O)N[C@@H](CC(=O)O)C(=O)N[C@H](C(=O)N[C@@H](Cc1cnc[nH]1)C(=O)N[C@@H](CC(N)=O)C(=O)N[C@@H](Cc1ccccc1)C(N)=O)C(C)C)C(C)C, the Activity is reported as “Non-Toxic”. In the case of CC[C@H](C)[C@H](NC(=O)[C@H](CCC(=O)O)NC(=O)[C@H](CO)NC(=O)[C@@H](NC(=O)[C@H](CO)NC(C)=O)C(C)C)C(=O)N[C@@H](CCC(N)=O)C(=O)N[C@@H](CC(C)C)C(=O)N[C@@H](CCSC)C(=O)N[C@@H](Cc1cnc[nH]1)C(=O)N[C@@H](CC(N)=O)C(=O)N[C@@H](CC(C)C)C(=O)NCC(=O)N[C@@H](CCCCN)C(=O)N[C@@H](Cc1cnc[nH]1)C(=O)N[C@@H](CC(C)C)C(=O)N[C@@H](CC(N)=O)C(=O)N[C@@H](CO)C(=O)N[C@@H](CCSC)C(=O)N[C@@H](CCC(=O)O)C(=O)N[C@@H](CCCNC(=N)N[C@@H]1O[C@H](CO)[C@@H](O)[C@H]1O)C(=O)N[C@H](C(=O)N[C@@H](CCC(=O)O)C(=O)N[C@@H](Cc1c[nH]c2ccccc12)C(=O)N[C@@H](CC(C)C)C(=O)N[C@@H](CCCNC(=N)N[C@@H]1O[C@H](CO)[C@@H](O)[C@H]1O)C(=O)N[C@@H](CCCCN)C(=O)N[C@@H](CCCCN)C(=O)N[C@@H](CC(C)C)C(=O)N[C@@H](CCC(N)=O)C(=O)N[C@@H](CC(=O)O)C(=O)N[C@H](C(=O)N[C@@H](Cc1cnc[nH]1)C(=O)N[C@@H](CC(N)=O)C(=O)N[C@@H](Cc1ccccc1)C(N)=O)C(C)C)C(C)C, the Activity is reported as “Non-Toxic”.
